Here are results for 39 compounds from ChEMBL document CHEMBL3045322, “Synthesis and herbicidal activity of 2-acylimino-3-phenyl-1,3-thiazolines—A new family of bleaching herbicides—” (J Pestic Sci, 2006).

Each structure is given as a SMILES string.

The subject of one data set is Echinochloa frumentacea. Description: Herbicidal activity against Echinochloa frumentacea (Japanese millet) in plastic pot assessed as killing at 500 g/ha under greenhouse for 20 days by preemergence herbicidal activity tests. It counts as functional.
Data set [1] has as its system Ipomoea nil. Kind of data set: Herbicidal activity against Ipomoea nil (Japanese morning glory) in plastic pot assessed as killing at 500 g/ha under greenhouse for 20 days by pre-emergence herbicidal activity tests. It counts as functional.
Data set [2] has as its system Abutilon theophrasti. Kind of data set: Herbicidal activity against Abutilon theophrasti (velvetleaf) in plastic pot assessed as killing at 500 g/ha under greenhouse for 20 days by preemergence herbicidal activity tests. It is filed as functional.
The subject of data set [3] is Echinochloa crus-galli. Description: Herbicidal activity against Echinochloa crus-galli (barnyard grass) in field soil at 62.5 g/ha measured after 3 days by preemergence herbicidal activity tests. It is filed as functional.
Data set [4] concerns Abutilon theophrasti. Description: Herbicidal activity against Abutilon theophrasti (velvetleaf) in field soil at 62.5 g/ha measured after 3 days by preemergence herbicidal activity tests. It is filed as functional.
The subject of data set [5] is Abutilon theophrasti. Kind of data set: Herbicidal activity against Abutilon theophrasti (velvetleaf) in field soil at 125 g/ha measured after 3 days by preemergence herbicidal activity tests. It counts as functional.
Data set [6] deals with Echinochloa crus-galli. Description: Herbicidal activity against Echinochloa crus-galli (barnyard grass) in field soil at 125 g/ha measured after 3 days by preemergence herbicidal activity tests. It counts as functional.
The subject of data set [7] is Sida spinosa. Kind of data set: Herbicidal activity against Sida spinosa in field soil at 125 g/ha measured after 3 days by preemergence herbicidal activity tests. It is filed as functional.
The subject of data set [8] is Amaranthus viridis. Kind of data set: Herbicidal activity against Amaranthus viridis in field soil at 125 g/ha measured after 3 days by pre-emergence herbicidal activity tests. It counts as functional.
Data set [9] relates to Ipomoea nil. Description: Herbicidal activity against Ipomoea nil (Japanese morning glory) in field soil at 62.5 g/ha measured after 3 days by pre-emergence herbicidal activity tests. It is filed as functional.
In data set [10] the test system is Sida spinosa. Kind of data set: Herbicidal activity against Sida spinosa in field soil at 62.5 g/ha measured after 3 days by preemergence herbicidal activity tests. It counts as functional.
In data set [11] the test system is Portulaca oleracea. Description: Herbicidal activity against Portulaca oleracea in field soil at 125 g/ha measured after 3 days by preemergence herbicidal activity tests. It counts as functional.
Data set [12] concerns Sorghum halepense. Kind of data set: Herbicidal activity against Sorghum halepense (Johnson grass) in field soil at 125 g/ha measured after 3 days by preemergence herbicidal activity tests. It counts as functional.
Data set [13] has as its system Ipomoea nil. Kind of data set: Herbicidal activity against Ipomoea nil (Japanese morning glory) in field soil at 125 g/ha measured after 3 days by pre-emergence herbicidal activity tests. It is filed as functional.
Data set [14] relates to Eleusine indica. Description: Herbicidal activity against Eleusine indica in field soil at 125 g/ha measured after 3 days by preemergence herbicidal activity tests. It is filed as functional.
Data set [15] deals with Eleusine indica. Description: Herbicidal activity against Eleusine indica in field soil at 62.5 g/ha measured after 3 days by preemergence herbicidal activity tests. It is filed as functional.
The test system of data set [16] is Gossypium hirsutum. Description: Phytotoxicity against Gossypium hirsutum (cotton) at 125 g/ha by selectivity assay. It is filed as organism-based. The note with it: in vivo.
The subject of data set [17] is Portulaca oleracea. Description: Herbicidal activity against Portulaca oleracea in field soil at 62.5 g/ha measured after 3 days by preemergence herbicidal activity tests. It counts as functional.
Data set [18] deals with Gossypium hirsutum. Description: Phytotoxicity against Gossypium hirsutum (cotton) at 62.5 g/ha by selectivity assay. It counts as organism-based. To be noted: in vivo.
Data set [19] deals with Amaranthus viridis. Description: Herbicidal activity against Amaranthus viridis in field soil at 62.5 g/ha measured after 3 days by pre-emergence herbicidal activity tests. It counts as functional.
Data set [20] concerns Sorghum halepense. Description: Herbicidal activity against Sorghum halepense (Johnson grass) in field soil at 62.5 g/ha measured after 3 days by preemergence herbicidal activity tests. It counts as functional.

On to `CCOC(=O)/N=c1/sc(Cl)cn1-c1cccc(C(F)(F)F)c1`, for which the Activity in the data set on Echinochloa frumentacea is given as 90%; in the data set with Ipomoea nil [1], 60%; in the data set on Abutilon theophrasti [2] it was 70%.

With `CCOC(=O)/N=c1/sc(Br)cn1-c1cccc(C(F)(F)F)c1`, the Activity in the data set with Echinochloa frumentacea is recorded as 90%; in the data set with Ipomoea nil [1], 60%; in the data set with Abutilon theophrasti [2], 100%.

In the case of `CCOC(=O)/N=c1/scc(Cl)n1-c1cccc(C(F)(F)F)c1`, the Activity with Echinochloa frumentacea, in the data set on Ipomoea nil [1] and in the data set on Abutilon theophrasti [2] was 0% in each case.

`CCC(=O)/N=c1\sc(C)cn1-c1cccc(C(F)(F)F)c1`: the values for the Activity in the data set on Echinochloa frumentacea, with Ipomoea nil [1] and with Abutilon theophrasti [2] were 70%, 60% and 50%, respectively.

As to `Cc1cn(-c2cccc(C(F)(F)F)c2)/c(=N/C(=O)C2CC2)s1`, the results for the Activity with Echinochloa frumentacea, with Ipomoea nil [1] and in the data set with Abutilon theophrasti [2] were 90%, 60% and 40%, respectively.

Take `Cc1cn(-c2cccc(C(F)(F)F)c2)/c(=N/C(=O)C(F)(F)C(F)(F)F)s1`: the figures for the Activity with Echinochloa frumentacea, with Ipomoea nil [1] and in the data set with Abutilon theophrasti [2] were 80%, 70% and 80%, respectively.

With `CC(=O)/N=c1/sc(C)cn1-c1cccc(C(F)(F)F)c1`, the values for the Activity in the data set with Echinochloa frumentacea, in the data set on Ipomoea nil [1] and in the data set on Abutilon theophrasti [2] were 100%, 100% and 90%, respectively.

As to `CC(=S)/N=c1/sc(C)cn1-c1cccc(C(F)(F)F)c1`, the values for the Activity in the data set with Echinochloa frumentacea, in the data set on Ipomoea nil [1] and in the data set on Abutilon theophrasti [2] were 10%, 0% and 0%, respectively.

Take `CCCC(=O)/N=c1\sc(C)cn1-c1cccc(C(F)(F)F)c1`: the Activity is 40% in the data set on Echinochloa frumentacea, 40% with Ipomoea nil [1] and 20% with Abutilon theophrasti [2].

For the compound `CCOC(=O)/N=c1/sc(Br)c(Br)n1-c1cccc(C(F)(F)F)c1`, the figures for the Activity with Echinochloa frumentacea, with Ipomoea nil [1] and in the data set on Abutilon theophrasti [2] were 20%, 40% and 0%, respectively.

For `Cc1cn(-c2cccc(C(F)(F)F)c2)c(=N)s1`, the Activity with Echinochloa frumentacea is 40%; in the data set on Ipomoea nil [1], 0%; in the data set on Abutilon theophrasti [2], 0%.

In the case of `CCOC(=O)/N=c1/sc(C)cn1-c1cccc(C(F)(F)F)c1`, the Activity in the data set on Echinochloa frumentacea, in the data set on Ipomoea nil [1] and in the data set with Abutilon theophrasti [2] was 90% in each case.

Consider `CCOC(=O)/N=c1/sc(I)cn1-c1cccc(C(F)(F)F)c1`, for which the Activity with Echinochloa frumentacea amounted to 80%; in the data set with Ipomoea nil [1], 90%; in the data set with Abutilon theophrasti [2], 60%.

Turning to `CCOC(=O)/N=c1/scc(N)n1-c1cccc(C(F)(F)F)c1`, the Activity worked out at 30% with Echinochloa frumentacea, 10% in the data set on Ipomoea nil [1] and 0% in the data set with Abutilon theophrasti [2].

For the compound `Cc1cn(-c2cccc(C(F)(F)F)c2)/c(=N/C(=O)C(Cl)Cl)s1`, the Activity turned out to be 30% in the data set on Echinochloa frumentacea, 0% in the data set with Ipomoea nil [1] and 0% with Abutilon theophrasti [2].

Consider `Cc1cn(-c2cccc(C(F)(F)F)c2)/c(=N/C(=O)C(C)C)s1`, for which the Activity with Echinochloa frumentacea came to 70%; in the data set on Ipomoea nil [1], 40%; in the data set on Abutilon theophrasti [2] it was 60%.

With `CCOC(=O)/N=c1/sc(SC)cn1-c1cccc(C(F)(F)F)c1`, the Activity came out at 70% in the data set on Echinochloa frumentacea, 50% in the data set with Ipomoea nil [1] and 40% in the data set with Abutilon theophrasti [2].

Consider `CCOC(=O)/N=c1/sc(C(C)C)cn1-c1cccc(C(F)(F)F)c1`, for which the Activity in the data set on Echinochloa frumentacea is recorded as 0%; with Ipomoea nil [1], 10%; in the data set with Abutilon theophrasti [2], 0%.

Turning to `CCOC(=O)/N=c1/sc(C)c(Br)n1-c1cccc(C(F)(F)F)c1`, the Activity came out at 20% in the data set on Echinochloa frumentacea, 40% in the data set on Ipomoea nil [1] and 0% in the data set on Abutilon theophrasti [2].

Take `CCOC(=O)/N=c1/scc(C)n1-c1cccc(C(F)(F)F)c1`: the Activity in the data set on Echinochloa frumentacea, in the data set on Ipomoea nil [1] and in the data set with Abutilon theophrasti [2] was 0% in each case.

For `Cc1cn(-c2cccc(C(F)(F)F)c2)/c(=N/C(=O)C(C)(C)C)s1`, the Activity came to 50% in the data set with Echinochloa frumentacea, 60% with Ipomoea nil [1] and 40% in the data set with Abutilon theophrasti [2].

With `CCNC(=O)/N=c1/sc(C)cn1-c1cccc(C(F)(F)F)c1`, the results for the Activity in the data set on Echinochloa frumentacea, in the data set on Ipomoea nil [1] and in the data set with Abutilon theophrasti [2] were 80%, 40% and 40%, respectively.

As to `Cc1cn(-c2cccc(C(F)(F)F)c2)/c(=N/C(=O)C(F)(F)F)s1`, the Activity in the data set with Echinochloa crus-galli [3] amounted to 80%; with Abutilon theophrasti [4], 90%; in the data set with Echinochloa frumentacea, 100%; in the data set with Abutilon theophrasti [5], 100%; with Echinochloa crus-galli [6], 100%; in the data set with Sida spinosa [7], 100%. For the same compound, the Activity was found to be 100% in the data set with Amaranthus viridis [8]; 80% in the data set on Ipomoea nil [9]; 90% in the data set with Sida spinosa [10]; 90% in the data set with Portulaca oleracea [11]; 90% in the data set on Sorghum halepense [12]; 100% in the data set with Ipomoea nil [13]. The Activity in the data set with Eleusine indica [14] amounted to 90%; in the data set on Eleusine indica [15] it was 80%; in the data set with Gossypium hirsutum [16], 30%; with Ipomoea nil [1], 100%; in the data set on Portulaca oleracea [17], 90%; with Gossypium hirsutum [18] it was 10%. Further, the Activity in the data set on Amaranthus viridis [19] came out at 90%; in the data set on Abutilon theophrasti [2], 100%; in the data set on Sorghum halepense [20], 70%.

As for `CSC(=S)/N=c1/sc(C)cn1-c1cccc(C(F)(F)F)c1`, the Activity in the data set on Echinochloa frumentacea stood at 50%; with Ipomoea nil [1], 40%; in the data set on Abutilon theophrasti [2], 30%.

For `Cc1cn(-c2cccc(C(F)(F)F)c2)/c(=N\C(=O)N(C)C)s1`, the Activity came out at 70% in the data set on Echinochloa frumentacea, 20% in the data set with Ipomoea nil [1] and 30% with Abutilon theophrasti [2].

As for `Cc1cn(-c2cccc(C(F)(F)F)c2)/c(=N\C(=O)Nc2ccccc2)s1`, the figures for the Activity in the data set on Echinochloa frumentacea, in the data set with Ipomoea nil [1] and with Abutilon theophrasti [2] were 60%, 40% and 60%, respectively.

As to `Cc1cn(-c2cccc(C(F)(F)F)c2)/c(=N/c2ccc(Cl)cc2)s1`, the Activity with Echinochloa frumentacea, in the data set on Ipomoea nil [1] and in the data set on Abutilon theophrasti [2] was 0% throughout.

On to `Cc1cn(-c2cccc(C(F)(F)F)c2)/c(=N/C#N)s1`, for which the values for the Activity with Echinochloa frumentacea, in the data set on Ipomoea nil [1] and in the data set with Abutilon theophrasti [2] were 90%, 50% and 60%, respectively.

For the compound `C/N=c1/sc(C)cn1-c1cccc(C(F)(F)F)c1`, the Activity with Echinochloa frumentacea, with Ipomoea nil [1] and with Abutilon theophrasti [2] was 0% throughout.

Regarding `CCCc1cn(-c2cccc(C(F)(F)F)c2)/c(=N\C(=O)OCC)s1`, the Activity with Echinochloa frumentacea is given as 60%; with Ipomoea nil [1], 40%; with Abutilon theophrasti [2], 0%.

With `Cc1cn(-c2cccc(C(F)(F)F)c2)/c(=N/C(=O)CCl)s1`, the Activity is listed as 20% in the data set with Echinochloa frumentacea, 0% in the data set with Ipomoea nil [1] and 0% in the data set on Abutilon theophrasti [2].

Take `Cc1cn(-c2cccc(C(F)(F)F)c2)/c(=N\S(C)(=O)=O)s1`: the Activity was 90% in the data set with Echinochloa frumentacea, 80% in the data set with Ipomoea nil [1] and 80% in the data set on Abutilon theophrasti [2].

Consider `CCNC(=S)/N=c1/sc(C)cn1-c1cccc(C(F)(F)F)c1`, for which the figures for the Activity in the data set on Echinochloa frumentacea, with Ipomoea nil [1] and in the data set with Abutilon theophrasti [2] were 20%, 0% and 0%, respectively.

In the case of `CCOC(=O)/N=c1/sc2c(n1-c1cccc(C(F)(F)F)c1)CCC2`, the Activity in the data set on Echinochloa frumentacea, in the data set on Ipomoea nil [1] and in the data set with Abutilon theophrasti [2] was 0% throughout.

For the compound `CCOC(=O)/N=c1/sc(CC)cn1-c1cccc(C(F)(F)F)c1`, the Activity with Echinochloa frumentacea, in the data set with Ipomoea nil [1] and in the data set with Abutilon theophrasti [2] was 70% throughout.

For `CCOC(=O)/N=c1/sc(C#N)cn1-c1cccc(C(F)(F)F)c1`, the results for the Activity with Echinochloa frumentacea, in the data set with Ipomoea nil [1] and in the data set on Abutilon theophrasti [2] were 20%, 0% and 0%, respectively.

Regarding `Cc1cn(-c2cccc(C(F)(F)F)c2)/c(=N/C(=O)CF)s1`, the Activity was determined as 90% in the data set on Echinochloa frumentacea, 90% with Ipomoea nil [1] and 70% in the data set with Abutilon theophrasti [2].

Consider `CCOC(=O)/N=c1/sc2c(n1-c1cccc(C(F)(F)F)c1)CCCC2`, for which the Activity with Echinochloa frumentacea, with Ipomoea nil [1] and with Abutilon theophrasti [2] was 0% throughout.

For the compound `CCOC(=O)/N=c1/sccn1-c1cccc(C(F)(F)F)c1`, the Activity with Echinochloa frumentacea turned out to be 50%; with Ipomoea nil [1], 20%; in the data set with Abutilon theophrasti [2] it was 20%.
